Source: patent US8735593B2, “Aminopyridines useful as inhibitors of protein kinases” (Vertex Pharmaceuticals Incorporated, priority 2007, dated 2014)
Read-outs that look alike come from different tables or passages of the source.

Tests used:
[1] = test system: rat brains after transient middle cerebral artery occlusion (MCAO); conditions: cited from earlier work
[2] = test system: amyloid-β peptide tissue levels; conditions: mice over-expressing APP, treated over a three-week period; cited from earlier work
[3] = molecular target: GSK3α TYR 279 (Homo sapiens (Human), UniProt P49840); assay: GSK-3α p-TYR inhibition assay, western blotting of Jurkat cells; format: cell-based; conditions: compound incubated o/n, read-out: GSK3a pTYR 279: IC50
Protocol: (§1) Compounds are screened for their ability to inhibit the phosphorylation of tyrosine (TYR) residues through the use of western blotting of Jurkat cells dosed with the compounds. The phosphorylation of the specific TYR residues tested are GSK3α TYR 279 and GSK3β TYR 216.
(§2) Jurkat cells are seeded at a density of 2×10^5 cells/well in a 12 well dish in starvation media (RPMI+1% FBS+P/S). Following starvation for 16 hours, the compound is dosed into each well at a final DMSO concentration of 0.3% and cells are incubated o/n at 37° C. 5% CO2. The next day, cells are spun down at 1500 rpm, washed with PBS, and lysed in 100 uL Laemli sample buffer with β-mercaptoethanol.
(§3) 15 microliters (uL) of cell lysates are loaded onto a 10% tris-glycine gel and run at 120 v for 2 hours or until dye front runs off of the gel. The protein is then transferred onto a PVDF membrane at 100 v for 60 min. PBST (PBS containing 0.1% Tween 20, such as 1 ml Tween per 1 L of PBS) is then made up and used for all washes and antibody incubations. The blot is blocked in 5% nonfat milk PBST for one hour.
(§4) The primary antibody (GSK-3α/β pTYR 279/216 at 1:1000 dilution Upstate cat#05-413) is then added in 5%-nonfat milk PBST overnight at 4° C. with gentle rocking. The blot is then washed in PBST for 5 min. This is then repeated 4 times. A secondary anti-mouse-HRP conjugated antibody (1:5000 dilution) is added for 60 min in 5% milk PBST. The blot is then washed in PBST for 5 min. This is also repeated 4 times. 3.0 mL of the developing solution (ECL plus Western Blotting Detection System from Amersham/GE cat# RPN2132) is made and then added. The solution is swirled over the blot for ˜30 sec. The blot is then developed using CL-Xposure clear blue X-ray film. GAPDH expression level is used as a loading control, (GAPDH antibody: santa cruz 25-778) at 1:10000 dilution.
(§5) For determination of GSK-3α and GSK-3β pTYR IC50, the density of the respective bands for each protein at specific compound concentration is compared to a no compound DMSO treated control cell sample present on each exposure. IC50 numbers are defined as the concentration of compound in which the density of the GSK-3α or GSK-3β band is 50% of the no compound control.

[4] = molecular target: GSK-3β (AA 1-420) (Homo sapiens (Human), UniProt P49841); assay: GSK-3 Inhibition Assay (standard coupled enzyme system); format: biochemical; conditions: 20 μM ATP, 300 μM peptide, 20 nM GSK-3β, 30° C.
Protocol: Compounds of the present invention were screened for their ability to inhibit GSK-3β (AA 1-420) activity using a standard coupled enzyme system (Fox et al., Protein Sci. 1998, 7, 2249). Reactions were carried out in a solution containing 100 mM HEPES (pH 7.5), 10 mM MgCl2, 25 mM NaCl, 300 μM NADH, 1 mM DTT and 1.5% DMSO. Final substrate concentrations in the assay were 20 μM ATP (Sigma Chemicals, St Louis, Mo.) and 300 μM peptide (American Peptide, Sunnyvale, Calif.). Reactions were carried out at 30° C. and 20 nM GSK-3β. Final concentrations of the components of the coupled enzyme system were 2.5 mM phosphoenolpyruvate, 300 μM NADH, 30 μg/ml pyruvate kinase and 10 μg/ml lactate dehydrogenase.
An assay stock buffer solution was prepared containing all of the reagents listed above with the exception of ATP and the test compound of the present invention. The assay stock buffer solution (175 μl) was incubated in a 96 well plate with 5 μl of the test compound of the present invention at final concentrations spanning 0.002 μM to 30 μM at 30° C. for 10 min. Typically, a 12-point titration was conducted by preparing serial dilutions (from 10 mM compound stocks) with DMSO of the test compounds of the present invention in daughter plates. The reaction was initiated by the addition of 20 μl of ATP (final concentration 20 μM). Rates of reaction were obtained using a Molecular Devices Spectramax plate reader (Sunnyvale, Calif.) over 10 min at 30° C. The Ki values were determined from the rate data as a function of inhibitor concentration.

[5] = molecular target: GSK3β TYR 216 (Homo sapiens (Human), UniProt P49841); assay: GSK3β p-TYR inhibition assay, western blotting of Jurkat cells; format: cell-based; conditions: compound incubated o/n, read-out: GSK3b pTYR 216: IC50
Protocol: as §1, §2, §3, §4, §5

[6] = test system: β-catenin dependent TCF/LEF transcriptional activity; assay: β-Catenin stabilization protocol, β-lactamase reporter assay in Jurkat cells; format: cell-based; conditions: Homo sapiens, 460/530 ratio 50% of the maximum effect, read-out: Beta Catenin IC50
Description: GSK-3 phosphorylation of β-catenin targets it to the proteosome for degradation. Inhibition of GSK-3 results in accumulation of β-catenin in the cytosol of cells which through interaction with the transcription factor TCF/LEF translocates to the nucleus and drives the transcription of Wnt-dependent genes. The assay is designed to determine the level of β-catenin dependent TCF/LEF transcriptional activity in a quantitative manner through the use of a β-lactamase reporter assay in Jurkat cells dosed with a compound.
Jurkat β-catenin cells are starved overnight in assay media (1% FBS, 1× Penstrep, RPMI) in the flask. The next day Jurkat β-catenin cells are seeded in 96 well flat bottom plates at a density of 50,000 cells/well in assay media in a volume of 100 ul. The compound is added to the well at a final DMSO concentration of 0.75% and incubated at 37° C. o/n. The next day, 20 uL of 6×CCF4 dye is added to the wells and incubated at room temperature for 1-2 hours. Plates are read on the Cytofluor 4000 series multiwell plate reader and the 460/530 ratio is determined. The GSK-3 IC50 for induction of β-catenin is determined by plotting the 460/530 ratio against the concentration of compound (Log scale) and using the equation of the slope to calculate the point at which the ratio is 50% of the maximum effect.

[7] = read-out: Ki value, inhibition of GSK-3
[8] = read-out: Ki value, inhibition of GSK-3 (upper bound)

Sequence of GSK3β TYR 216 (P49841 whole entry): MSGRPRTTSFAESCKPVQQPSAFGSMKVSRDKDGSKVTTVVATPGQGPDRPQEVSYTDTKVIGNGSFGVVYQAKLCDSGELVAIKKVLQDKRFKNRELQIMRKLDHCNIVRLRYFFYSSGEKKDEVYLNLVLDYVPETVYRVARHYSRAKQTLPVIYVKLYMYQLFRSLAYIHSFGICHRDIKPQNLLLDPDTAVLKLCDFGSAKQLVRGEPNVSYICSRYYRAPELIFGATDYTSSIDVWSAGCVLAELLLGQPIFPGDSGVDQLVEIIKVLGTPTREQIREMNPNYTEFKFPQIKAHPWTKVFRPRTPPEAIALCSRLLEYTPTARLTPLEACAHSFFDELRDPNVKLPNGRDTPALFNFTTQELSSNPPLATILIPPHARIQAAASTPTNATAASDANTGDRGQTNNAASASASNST
Sequence of GSK-3β (AA 1-420) (P49841 whole entry, species assumed, the tested form may be a part): as the sequence (P49841 whole entry) above
Sequence of GSK3α TYR 279 (P49840 whole entry): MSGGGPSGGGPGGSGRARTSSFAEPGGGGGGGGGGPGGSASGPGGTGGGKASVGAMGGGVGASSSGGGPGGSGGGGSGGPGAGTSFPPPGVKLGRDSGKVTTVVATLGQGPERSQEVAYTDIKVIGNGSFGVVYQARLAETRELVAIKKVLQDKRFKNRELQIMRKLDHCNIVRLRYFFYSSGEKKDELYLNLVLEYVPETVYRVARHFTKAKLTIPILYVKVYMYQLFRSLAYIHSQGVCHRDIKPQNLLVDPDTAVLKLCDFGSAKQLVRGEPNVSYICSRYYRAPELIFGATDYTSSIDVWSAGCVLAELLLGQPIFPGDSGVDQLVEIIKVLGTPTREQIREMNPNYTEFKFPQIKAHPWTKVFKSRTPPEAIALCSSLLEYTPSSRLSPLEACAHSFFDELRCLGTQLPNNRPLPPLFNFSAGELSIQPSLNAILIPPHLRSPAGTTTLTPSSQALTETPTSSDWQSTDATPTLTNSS

IC50 [3] [nM] | Ki [4, 7] [nM] | Ki [4, 8] [nM] | IC50 [5] [nM] | IC50 [6] [nM] | Compound | infarct size [1] | decrease in amyloid-β peptide tissue levels [2] [%]
 |  |  |  |  | IGF-1: insulin growth factor-1, a known GSK-3 inhibitor | reduced infarct size | 
 |  |  |  |  | [Li] [lithium] |  | > 50
30 | > 10 | ≤ 1000 | 300 |  | Cc1cc(-c2ccccc2Cl)nc(Nc2n[nH]c3ncc(F)cc23)c1C [Compound I-4] |  | 
2 | ≤ 10 |  | 30 | 2700 | Cc1cc(Nc2n[nH]c3ncc(F)cc23)nc(-c2ccccc2Cl)c1 [Compound I-3] |  | 
 | > 10 | ≤ 1000 |  | 1300 | Cc1cc(Nc2ncc(C)s2)nc(-c2ccccc2Cl)c1 [Compound I-6] |  | 
3 | > 10 | ≤ 1000 | 50 | 2080 | Fc1cnc2[nH]nc(Nc3cc(C(F)(F)F)cc(-c4ccccc4Cl)n3)c2c1 [Compound I-1, N-(6-(2-chlorophenyl)-4-(trifluoromethyl)pyridin-2-yl)-5-fluoro-1H-pyrazolo[3,4-b]pyridin-3-amine] |  | 
10 | ≤ 10 |  | 200 | > 10000 | Cc1cc(Nc2n[nH]c3ncc(F)cc23)nc(-c2ccccc2Cl)c1C [Compound I-2] |  | 
0.6 | ≤ 10 |  | 20 | 1100 | Cc1cc(Nc2n[nH]c3ncc(F)cc23)nc(-c2ccccc2)c1C [Compound I-5] |  | 
